± gives the expanded uncertainty stated by the source.
Conditions: Gas, Burnett expansion method

Structure (SMILES): [He] [helium]
- mass density (323.66 K, 875.31 kPa): 1.297 ± 0.0035 kg/m3
- mass density (323.67 K, 386.6 kPa): 0.5746 ± 0.0026 kg/m3
- mass density (323.67 K, 1986.4 kPa): 2.9278 ± 0.0063 kg/m3
- mass density (323.67 K, 2996.7 kPa): 4.3975 ± 0.0091 kg/m3
- mass density (323.68 K, 581.96 kPa): 0.8635 ± 0.0029 kg/m3
- mass density (323.68 K, 1318.2 kPa): 1.9481 ± 0.0046 kg/m3
- mass density (323.68 K, 4542.5 kPa): 6.6206 ± 0.013 kg/m3
- mass density (333.58 K, 398.41 kPa): 0.5744 ± 0.0026 kg/m3
- mass density (333.58 K, 901.91 kPa): 1.2964 ± 0.0035 kg/m3
- mass density (333.58 K, 1358 kPa): 1.9472 ± 0.0045 kg/m3
- mass density (333.58 K, 3086.7 kPa): 4.3949 ± 0.0091 kg/m3
- mass density (333.58 K, 4675.1 kPa): 6.6128 ± 0.013 kg/m3
- mass density (333.59 K, 2046.3 kPa): 2.926 ± 0.0063 kg/m3
- mass density (333.62 K, 599.5 kPa): 0.8631 ± 0.0029 kg/m3
- mass density (343.5 K, 616.99 kPa): 0.8628 ± 0.0028 kg/m3
- mass density (343.5 K, 1397.8 kPa): 1.9464 ± 0.0045 kg/m3
- mass density (343.51 K, 928.6 kPa): 1.2959 ± 0.0034 kg/m3
- mass density (343.51 K, 3177 kPa): 4.3922 ± 0.0091 kg/m3
- mass density (343.51 K, 4808.1 kPa): 6.6049 ± 0.013 kg/m3
- mass density (343.52 K, 410.1 kPa): 0.5742 ± 0.0025 kg/m3
- mass density (343.52 K, 2106 kPa): 2.9243 ± 0.0063 kg/m3
- mass density (353.39 K, 421.94 kPa): 0.5741 ± 0.0025 kg/m3
- mass density (353.39 K, 634.63 kPa): 0.8624 ± 0.0028 kg/m3
- mass density (353.39 K, 3267.2 kPa): 4.3896 ± 0.009 kg/m3
- mass density (353.39 K, 4938.7 kPa): 6.5971 ± 0.013 kg/m3
- mass density (353.4 K, 954.95 kPa): 1.2953 ± 0.0034 kg/m3
- mass density (353.4 K, 1437.5 kPa): 1.9455 ± 0.0044 kg/m3
- mass density (353.4 K, 2165.8 kPa): 2.9225 ± 0.0062 kg/m3
- mass density (363.2 K, 2225.1 kPa): 2.9208 ± 0.0062 kg/m3
- mass density (363.28 K, 1476.9 kPa): 1.9446 ± 0.0044 kg/m3
- mass density (363.28 K, 5072.4 kPa): 6.5893 ± 0.013 kg/m3
- mass density (363.29 K, 433.46 kPa): 0.5739 ± 0.0024 kg/m3
- mass density (363.29 K, 433.47 kPa): 0.5739 ± 0.0024 kg/m3
- mass density (363.29 K, 652.06 kPa): 0.862 ± 0.0027 kg/m3
- mass density (363.29 K, 652.07 kPa): 0.862 ± 0.0027 kg/m3
- mass density (363.29 K, 981.18 kPa): 1.2947 ± 0.0033 kg/m3
- mass density (363.29 K, 2225 kPa): 2.9208 ± 0.0062 kg/m3
- mass density (363.29 K, 3356.7 kPa): 4.387 ± 0.009 kg/m3

— the NIST ThermoML archive (doi:10.1016/j.jct.2019.02.028)
